In patent publication US11471434B2, “Treatment for migraine” (INTRABIO LTD., priority 2017, dated 2022):

What was measured:
[1] = tested on: NPC Chinese Hamster Ovary (CHO) cells; experiment: Relative lysosomal volume via LysoTracker in NPC CHO cells; assay type: cell-based; details: 1 mM, 72 hours, p <0.01 versus untreated NPC1-null, FIG. 1
Description: NPC Chinese Hamster Ovary (CHO) cells were treated in vitro for 72 hours with 1 mM of acetyl-DL-leucine, acetyl-L-leucine, acetyl-D-leucine, DL-leucine, L-leucine, and D-leucine, respectively. Relative lysosomal volume was quantified via LysoTracker.
Data presented in FIG. 1 show the results for each treatment, with lysosomal volume expressed as fold change relative to untreated wild-type […]. The asterisks (**) indicate a p-values of <0.01 versus untreated NPC1-null.

[2] = tested on: Niemann-Pick Type C (NPC); details: 12 patients with NPC (Bremova 2015); cited from earlier work
cerebellar ataxia = details: patients with cerebellar ataxia (Schniepp 2015); cited from earlier work
cerebellar symptoms = details: cited from earlier work
vertigo = details: cited from earlier work
[3] = tested on: ataxia of different etiologies; details: patients with ataxia, responders (Becker-Bense 2015); cited from earlier work
[4] = tested on: Migraine and Vestibular Migraine; experiment: Case study Example 4: Tanganil for migraine and vestibular migraine; assay type: in vivo, human; details: before treatment with Tanganil
Text: Patient Details: • Sex: […] • Six tablets of Tanganil® per day: two in the morning, two at noon and two in the evening for one week; thereafter, ten tablets of Tanganil® per day: four in the morning, three at noon and three in the evening. Tanganil® tablets as described in Example 1.

Migraine with Aura = experiment: Case study Example 3: Tanganil for migraine with aura; assay type: in vivo, human; details: 600 mg taken once a week; before treatment with Tanganil
[5] = tested on: acute unilateral labyrinthectomy; details: rat, by activation of the vestibulo-cerebellum and deactivation of the posterolateral thalamus (Gunther 2015); cited from earlier work

## CC(C)CC(N)C(=O)O (racemic) [DL-leucine]
[1]
  lysosomal volume (LysoTracker), fold change relative to untreated wild-type: significantly reduced

## CC(=O)NC(CC(C)C)C(=O)O (racemic) [acetyl-DL-leucine]
[1]
  lysosomal volume (LysoTracker), fold change relative to untreated wild-type: significantly reduced
[2]
  ataxia: significant improvement in ataxia
Cerebellar ataxia
  gait variability: improves gait variability
Cerebellar symptoms; another case series (Pelz 2015)
  benefit in cerebellar patients: did not find benefit
Cerebellar symptoms; case series (Strupp 2013)
  cerebellar symptoms: improvement of cerebellar symptoms
vertigo; clinical results reported by various authors, including disappearance of vertigo attacks
  cases with improvement in vertigo symptomology: more than 95 % of cases
vertigo; used in France to treat acute vertigo since 1957
  safety profile: excellent safety profile
[3]
  brain metabolism (PET): increased metabolism in the midbrain and lower brainstem

## CC(=O)Oc1ccccc1C(=O)O [Aspirin]
[4]
  improvement of attacks of migraine headache with pain medication: no improvement

## CC(C)C[C@@H](N)C(=O)O [D-leucine]
[1]
  lysosomal volume (LysoTracker), fold change relative to untreated wild-type: significantly reduced

## CC(C)Cc1ccc(C(C)C(=O)O)cc1 (stereo not drawn) [Ibuprofen]
[4]
  improvement of attacks of migraine headache with pain medication: no improvement
Migraine with Aura
  response of headache attacks: responding

## CC(C)C[C@H](N)C(=O)O [L-leucine]
[1]
  lysosomal volume (LysoTracker), fold change relative to untreated wild-type: significantly reduced

## Cc1c(N(C)CS(=O)(=O)[O-])c(=O)n(-c2ccccc2)n1C.[Na+] [Novalgin]
[4]
  improvement of attacks of migraine headache with pain medication: improvement

## CC(=O)N[C@H](CC(C)C)C(=O)O [acetyl-D-leucine]
[1]
  lysosomal volume (LysoTracker), fold change relative to untreated wild-type: significantly reduced

## CC(=O)N[C@@H](CC(C)C)C(=O)O [acetyl-L-leucine]
[1]
  lysosomal volume (LysoTracker), fold change relative to untreated wild-type: significantly reduced
[5]
  effect on postural compensation: significant effect
